Earlier results in US20110212960A1, “NEW COMPOUNDS FOR THE TREATMENT OF CNS DISORDER” (BOEHRINGER INGELHEIM INTERNATIONAL GMBH, priority 2009, published 2011).

How the values were obtained:
Murine PDE9A = target: T1, Murine PDE9A (Mus musculus, UniProt O70628); conditions: concentrations below 200 micromolar; cited from earlier work
T1 sequence (O70628 1-534): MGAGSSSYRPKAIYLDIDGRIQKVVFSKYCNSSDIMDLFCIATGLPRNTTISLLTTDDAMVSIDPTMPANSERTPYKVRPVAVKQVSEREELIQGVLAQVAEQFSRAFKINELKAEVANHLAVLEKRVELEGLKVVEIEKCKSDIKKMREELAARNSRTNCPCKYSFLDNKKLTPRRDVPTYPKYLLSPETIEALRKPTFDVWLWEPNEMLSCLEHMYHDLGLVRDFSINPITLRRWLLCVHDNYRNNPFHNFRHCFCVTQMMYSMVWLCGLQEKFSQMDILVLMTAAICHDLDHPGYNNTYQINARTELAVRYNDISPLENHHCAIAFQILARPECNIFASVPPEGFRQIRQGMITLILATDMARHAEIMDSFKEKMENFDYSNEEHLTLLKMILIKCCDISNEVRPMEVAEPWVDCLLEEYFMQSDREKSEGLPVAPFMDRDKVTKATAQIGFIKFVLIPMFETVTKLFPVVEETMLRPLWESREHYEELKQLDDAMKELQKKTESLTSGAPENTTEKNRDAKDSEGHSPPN

human PDE9A = human PDE9A (Homo sapiens, UniProt O76083); conditions: concentrations of up to 100 micromolar; cited from earlier work
Sequence of human PDE9A (O76083 whole entry): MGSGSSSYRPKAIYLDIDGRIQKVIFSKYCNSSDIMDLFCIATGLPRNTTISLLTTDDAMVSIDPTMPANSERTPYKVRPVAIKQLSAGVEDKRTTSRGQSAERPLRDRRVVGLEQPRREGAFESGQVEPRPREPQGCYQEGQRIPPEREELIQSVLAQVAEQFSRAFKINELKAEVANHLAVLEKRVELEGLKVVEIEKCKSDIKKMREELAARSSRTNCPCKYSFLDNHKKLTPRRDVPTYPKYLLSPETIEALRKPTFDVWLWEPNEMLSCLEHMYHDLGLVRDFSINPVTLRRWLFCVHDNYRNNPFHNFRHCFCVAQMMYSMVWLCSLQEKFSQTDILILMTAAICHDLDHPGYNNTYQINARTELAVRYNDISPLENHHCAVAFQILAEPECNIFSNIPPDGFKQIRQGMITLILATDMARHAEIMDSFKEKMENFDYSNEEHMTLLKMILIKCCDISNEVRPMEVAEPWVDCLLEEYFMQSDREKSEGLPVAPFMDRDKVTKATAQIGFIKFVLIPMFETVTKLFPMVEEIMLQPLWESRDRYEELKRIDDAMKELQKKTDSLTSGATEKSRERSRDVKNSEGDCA

CC(C)Cn1c(=O)n(C)c(=O)c2[nH]cnc21 [IBMX]
inhibition of murine PDE9A (Murine PDE9A): not inhibited | inhibition on the isolated enzyme (human PDE9A): no inhibition
